Results as given in US20030119792A1, “Method of inhibiting the production and/or effects of intestinal pro-inflammatory cytokines, prostaglandins and others” (priority 2001, published 2003).
“Also recorded” adds a separate entry of the source. Marks after values point to notes of the source that are not given here.

What was measured:
[1] = test system: IL-1β production in THP-1 cells; assay: LPS and PMA-stimulated IL-1β production in THP-1 cells; format: cell-based, human; details: for effect on stimulated IL-1β production (in words): 10^−7 to 10^−4 M
Protocol: The human monocytic cell line THP-1 is obtained from the Cell Culture Unit of the University of Granada (Granada, Spain) (ECACC reference number: 88081201) and used to assay the effects of the different compounds on IL-1 production. These cells are cultured in RPMI 1640 (Life Technologies, Paisley, UK) supplemented with 10% fetal bovine serum (Life Technologies), 2 mM glutamine and 0.05 mM mercaptoethanol in a humidified 5% CO2 atmosphere at 37° C. Cells are seeded onto 24-well plates at a density of 2×10^6 cells ml^−1 and pre-incubated during 30 min with the different test compounds, at concentrations ranging from 10^−7 to 10^−4 M, and then stimulated with 1 μg ml^−1 LPS and 1 μM phorbol 12-myristate 13-acetate (PMA). After 20 h, plates are centrifuged at 1,000 g for 10 min and supematants are collected and stored at −80° C. for the determination of IL-1 levels by EIA using a kit system (Amersham Pharmacia Biotech, Buckinghamshire, UK).

[2] = test system: IL-8 production in HT-29 cells; assay: LPS-stimulated IL-8 production in HT-29 cell cultures; format: cell-based, human; details: for effect on IL-8 basal production: no LPS
Protocol: The human colon adenocarcinoma cell line HT-29, obtained from the Cell Culture Unit of the University of Granada (Granada, Spain) (ECACC reference number: 91072201), is used as a model of intestinal epithelium to test the ability of the different compounds to inhibit the production/release of IL-8. Cells are grown in Dulbecco's modified Eagle's medium supplemented with 10% fetal bovine serum (Boehringer Mannheim, Mannheim, Germany), 2 mM L-glutamine, 50,000 u l^−1 penicillin/streptomycin and 2.5 mg ml^−1 amphotericin B, in a humidified 5% CO2 atmosphere at 37° C. Cells are seeded into 12-well plates and grown to confluence. […] After 20 h, supernatants are collected, centrifuiged to remove debris at 7,000 g for 10 min and stored at −80° C. for the determination of IL-8 levels by enzyme-linked immunosorbent assay (Biosource International, Nivilles, Belgium).

[3] = test system: TNF-α production in U-937 cells; assay: LPS-stimulated TNF-α production in PMA-differentiated U-937 cells; format: cell-based, human; details: for effect on TNF-α production (in words): differentiated U-937 cells, LPS 4 h, 10^−6 to 10^−4 M
Protocol: The cells are cultured in RPMI 1640 (Life Technologies) supplemented with 10% fetal bovine serum and 2 mM glutamine in a humidified 5% CO2 atmosphere at 37° C. Cell concentration is adjusted to 0.5×10^6 cells ml, and monocytic differentiation is induced by incubation with 20 ng ml^−1 PMA for 24 h. After that, cells are harvested, centrifuged at 200 g for 5 min and plated onto 48-well plates at 210^6 cells ml^−1, pre-incubated for 30 min with the test compounds at concentrations ranging from 10^−6 to 10^−4 M, and stimulated with 0.1 μg ml^−1 LPS. After 4 h, plates are centrifuged at 1,000 g for 10 min and supernatants are collected and stored at −80° C. for the quantification of the TNF-α released in the culture medium by EIA using a commercial kit (R&D, Minneapolis, Minn., USA).

[4] = test system: TNBS-induced rat colitis; details: cited from earlier work
[5] = test system: colonic myeloperoxidase (MPO) activity; assay: Reactivated TNBS colitis in rats: colonic MPO activity; format: in vivo, rat
Protocol: (§1) Colitis is induced by the method originally described by Morris et al. (1989), with minor modifications. Female Wistar rats (180-220 g) obtained from the Laboratory Animal Service of the University of Granada (Granada, Spain) are randomly distributed in several experimental groups. Animals are housed in makrolon cages (3-4 rats per cage) and maintained in an air-conditioned animal room with a 12 h light-dark cycle, and they are provided with free access to tap water and food (Panlab A.04). Animals are fasted overnight and anaesthetized with halothane. Under anesthesia, animals received 10 mg of TNBS dissolved in 0.25 ml of 50% ethanol (v v^−1) by means of a Teflon cannula inserted 8 cm through the anus. During and after TNBS administration rats are kept in a head-down position until they recovered from anesthesia, and then returned to their cage. […] Two additional groups are also included for reference: a non colitic group receiving intracolonically 0.25 ml of phosphate buffer saline (pH=7.4) and another colitic group which received only the first dose of TNBS (control group without relapse); both groups are orally administered with vehicle.
Animals are sacrificed with an overdose of halothane, and the entire colon is removed. The colonic segments are placed on an ice-cold plate, cleaned of fat and mesentery, and blotted on filter paper. Each specimen is weighed and its length measured under a constant load (2 g). […] The colon is subsequently divided longitudinally in 3 pieces for biochemical determinations. […] MPO activity is measured according to the technique described by Krawisz et al. (1984); the results are expressed as MPO units per gram of wet tissue and one unit of MPO activity is defined as that degrading 1 μmol min^−1 of hydrogen peroxide at 25° C. […] The supernatants are frozen at −80° C. until assay and cytokines are quantified by enzyme-linked immunosorbent assay (Amersham Pharmacia Biotech). […]

[6] = test system: TNF-α production in mononuclear cells; assay: TNF-α production in mononuclear cells (FIG. 8); format: cell-based; details: 10 uM
From the text: FIG. 8. Effects of UR-12746-S in the production of TNF-α in mononuclear cells.

[7] = test system: colonic IL-1β levels; assay: Reactivated TNBS colitis in rats: colonic IL-1β levels; format: in vivo, rat; details: FIG. 5
Protocol: (§2) Colitis is induced by the method originally described by Morris et al. (1989), with minor modifications. Female Wistar rats (180-220 g) obtained from the Laboratory Animal Service of the University of Granada (Granada, Spain) are randomly distributed in several experimental groups. Animals are housed in makrolon cages (3-4 rats per cage) and maintained in an air-conditioned animal room with a 12 h light-dark cycle, and they are provided with free access to tap water and food (Panlab A.04). Animals are fasted overnight and anaesthetized with halothane. Under anesthesia, animals received 10 mg of TNBS dissolved in 0.25 ml of 50% ethanol (v v^−1) by means of a Teflon cannula inserted 8 cm through the anus. […]
(§3) Animals are sacrificed with an overdose of halothane, and the entire colon is removed. […] Each specimen is weighed and its length measured under a constant load (2 g). […] MPO activity is measured according to the technique described by Krawisz et al. (1984); the results are expressed as MPO units per gram of wet tissue and one unit of MPO activity is defined as that degrading 1 μmol min^−1 of hydrogen peroxide at 25° C. […] The supernatants are frozen at −80° C. until assay and cytokines are quantified by enzyme-linked immunosorbent assay (Amersham Pharmacia Biotech). […]

[8] = test system: colonic TNF-α levels; assay: Reactivated TNBS colitis in rats: colonic TNF-α levels; format: in vivo, rat; details: FIG. 6
Protocol: as §2, §3

[9] = test system: reactivated TNBS colitis; assay: Reactivated TNBS colitis in rats: macroscopic colonic damage; format: in vivo, rat
Protocol: as §1
Animals are sacrificed with an overdose of halothane, and the entire colon is removed. The colonic segments are placed on an ice-cold plate, cleaned of fat and mesentery, and blotted on filter paper. Each specimen is weighed and its length measured under a constant load (2 g). […] The colon is subsequently divided longitudinally in 3 pieces for biochemical determinations. […] MPO activity is measured according to the technique described by Krawisz et al. (1984); the results are expressed as MPO units per gram of wet tissue and one unit of MPO activity is defined as that degrading 1 μmol min^−1 of hydrogen peroxide at 25° C. Samples for the determination of TNF-α and IL-1 synthesis are immediately weighed, minced on an ice-cold plate and suspended in a tube with 10 mM sodium phosphate buffer, pH=7.4, 1:5 w v^−1. The tubes are placed in a shaking water bath at 37° C. for 20 min and centrifuged at 9000 g for 30 s at 4° C. The supernatants are frozen at −80° C. until assay and cytokines are quantified by enzyme-linked immunosorbent assay (Amersham Pharmacia Biotech). All biochemical measurements are completed within one week from the time of sample collection and are performed in duplicate.

[10] = test system: HT-29, THP-1 and U-937 cells; details: any assayed concentration, any cell types used
Protocol: Test compounds are prepared at 600 μM stock solution in PBS and further working dilutions are performed in culture medium. Percentage inhibition of cytokine production is calculated for every drug concentration.
The test compounds are prepared at 600 μM stock solution in PBS and further working dilutions are performed in culture medium. Percentage inhibition of cytokine production is calculated for every drug concentration.

[11] = two weeks after the initial colonic challenge
[12] = 25 mg kg^−1 oral daily, 3 wk (after second TNBS)
[13] = 25 mg kg^−1 oral daily, 4 wk (after second TNBS)
[14] = 50 mg kg^−1 oral daily, 3 wk (after second TNBS)
[15] = 50 mg kg^−1 oral daily, 4 wk (after second TNBS)

Compound: Nc1ccc(O)c(C(=O)O)c1 [5-ASA, 5-aminosalicylic acid]
- effect on stimulated IL-1β production (in words) [1]: only a weak effect; also recorded: weak inhibitory activity
- inhibition of stimulated IL-1β production ([1]; the different concentrations assayed): 10-20%
- inhibition at 1 µM ([2]; Homo sapiens, LPS, achieved at 10^−6 M, not higher up to 10^−4 M, read-out: maximum inhibitory effect on LPS-stimulated IL-8 production): 30 to 40%
- effect on IL-8 basal production [2]: no significant effect
- effect on TNF-α production (in words) [3]: devoid of any significant effect; also recorded: inactive

Compound: Cc1nc2cnccc2n1CC1CCN(C(=O)C=C(c2ccccc2)c2ccc(/N=N\c3ccc(O)c(C(=O)O)c3)cc2)CC1 [UR-12746 free acid, (Z)-2-hydroxy-5-[[4-[3-[4-[(2-methyl-1H-imidazo[4,5-c]pyridin-1-yl)methyl]-1-piperidinyl]-3-oxo-1-phenyl-1-propenyl]phenyl]azo] benzoic acid]
- IL-1β production ([4]; 50-100 mg/kg, 4 week time span): reduce IL-1β production
- Platelet Activating Factor (PAF) activity ([4]; 50-100 mg/kg, 4 week time span): inhibit Platelet Activating Factor (PAF) activity
- colonic myeloperoxidase (MPO) activity ([4]; 50-100 mg/kg, 4 week time span): reduce colonic myeloperoxidase (MPO) activity
- LTB4 production ([4]; only at 100 mg/kg and only after 3 and 4 weeks of administration): reduce LTB4 production
- colonic damage ([4]; only at the 100 mg/kg dosage): significant reduction in colonic damage

Compound: Cc1nc2cnccc2n1CC1CCN(C(=O)C=C(c2ccccc2)c2ccc(/N=N\c3ccc(O)c(C(=O)[O-])c3)cc2)CC1.[Na+] [UR-12746-S, (Z)-2-hydroxy-5-[[4-[3-[4-[(2-methyl-1H-imidazo[4,5-c]pyridin-1-yl)methyl]-1-piperidinyl] -3-oxo-1-phenyl-1-propenyl]phenyl]azo] benzoic acid sodium salt]
- colonic MPO activity after colitis relapse ([5]; 25 and 50 mg kg^−1, after second TNBS, FIG. 4): prevent the increased activity
- colonic MPO activity ([5]; 25 and 50 mg kg^−1, first two weeks after the initial TNBS, FIG. 4): reduction in colonic MPO activity
- effect in reducing MPO activity in comparison with sulphasalazine ([5]; same doses, same experimental conditions): higher effect
- inhibition of TNF-α production compared with UR-12715 or a combination of UR-12715 and 5-ASA [6]: to a greater extent
- colonic IL-1β levels after second administration of TNBS ([7]; after second TNBS): effectively prevents the increase in IL-1β levels
- colonic IL-1β levels [7, 11]: decrease colonic IL-1β levels significantly
- colonic TNF-α levels after second administration of TNBS ([8]; 50 mg kg^−1, after second TNBS): significantly reduced
- colonic TNF-α levels [8, 11]: without showing any significant effect
- potency in inhibiting TNF-α production compared to the individual components, a combination of the components and sulfasalazine ([3]; U-937 cells, FIG. 7): more potent
- colonic weight/length ratio, mean ± s.e.mean ([9]; 25 mg kg^−1 oral daily, 1 wk): 146.6 ± 8.1 mg/cm
- damage score (0-10), median (range) ([9]; 25 mg kg^−1 oral daily, 1 wk): 5.5 (4-6)
- colonic weight/length ratio, mean ± s.e.mean ([9]; 25 mg kg^−1 oral daily, 2 wk): 143.6 ± 4.9 mg/cm
- damage score (0-10), median (range) ([9]; 25 mg kg^−1 oral daily, 2 wk): 5 (4-5)
- colonic weight/length ratio, mean ± s.e.mean [9, 12]: 150.5 ± 4.3 mg/cm
- damage score (0-10), median (range) [9, 12]: 5 (4-6)
- colonic weight/length ratio, mean ± s.e.mean [9, 13]: 143.2 mg/cm
- damage score (0-10), median (range) [9, 13]: 5 (2-6)
- colonic weight/length ratio, mean ± s.e.mean ([9]; 50 mg kg^−1 oral daily, 1 wk): 137.0 ± 8.4 mg/cm
- damage score (0-10), median (range) ([9]; 50 mg kg^−1 oral daily, 1 wk): 4.5 (4-6)
- colonic weight/length ratio, mean ± s.e.mean ([9]; 50 mg kg^−1 oral daily, 2 wk): 120.0 ± 5.9 mg/cm
- damage score (0-10), median (range) ([9]; 50 mg kg^−1 oral daily, 2 wk): 4 (3-5)
- colonic weight/length ratio, mean ± s.e.mean [9, 14]: 142.3 ± 3.1 mg/cm
- damage score (0-10), median (range) [9, 14]: 4 (3-5)*
- colonic weight/length ratio, mean ± s.e.mean [9, 15]: 110.8 mg/cm
- damage score (0-10), median (range) [9, 15]: 3 (2-4)*
- colonic macroscopic damage score and colonic weight/length ratio after reactivation, compared with control colitic animals without relapse ([9]; after second TNBS dose): no statistical differences

Compound: Cc1nc2cnccc2n1CC1CCN(C(=O)C=C(c2ccccc2)c2ccc(N=Nc3ccc(O)c(C(=O)O)c3)cc2)CC1 [trans-1-[[1-[3-[4-(4-hydroxy-3-carboxyphenylazo)phenyl]-3-phenylpropenoyl]-4-piperidyl]methyl]-1H-2-methylimidazole [4,5-c] pyridine]
- viability (trypan blue exclusion) [10]: higher than 95%

Compound: (Z)-1-[4-(3-aminophenyl)-1-oxo-3-phenyl-2-propenyl]-4-[(2-methyl-lH-imidazo[4,5-c]pyridin-1-yl)methyl] piperidine [UR-12715]
- effect on stimulated IL-1β production (in words) [1]: inhibited; also recorded: inhibits the stimulated cytokine production in a concentration-dependent way
- effect on IL-8 basal production [2]: no significant effect
- effect on TNF-α production (in words) [3]: inhibited; also recorded: concentration-dependent inhibitory effect
